Results taken from patent USRE37781E1, “Substituted cyclic carbonyls and derivatives thereof useful as retroviral protease inhibitors” (DuPont Pharmaceuticals Company, priority 1991, dated 2002).
pKi: −log10 of the molar value. In brackets after ≈: the same amount, converted by molar mass. Read-outs that look alike come from different tables or passages of the source.

Experiments:
[1] = biological target: single-chain tethered dimer of HIV protease (Human immunodeficiency virus 1, UniProt P04585); test: biochemical; type: biochemical
Experimental: HIV Protease Inhibition Assay—HPLC Method
Active protease was prepared as described therein by extraction with 67% acetic acid, dilution 33-fold with water, dialysis against water and then against a “refolding buffer” consisting of 20 mM MES, 1 mM dithiothreitol and 10% glycerol. Protease was stored as a stock preparation at 10 uM in refolding buffer.
Substrate: Peptide of sequence: aminobenzoyl-Ala-Thr-His-Gln-Val-Tyr-Phe(NO2)-Val-Arg-Lys-Ala containing p-nitrophenylalanine, was prepared by solid phase synthesis as previously described Cheng et al., op.cit. Stock solutions of 2 mM substrate were prepared in DMSO.
Inhibitory compounds were dissolved in sufficient DMSO to make 3 mM stock solutions. All further dilutions were prepared in “assay buffer”: 1M NaCl, 50 mM MES, pH 5.5, 1 mM EDTA, 1 mM DTT, […] glycerol.
Enzyme reaction: In a 2 ml screw-cap centrifuge tube were added 50 ul protease (final concentration 0.25 nM) and 0.1 ml inhibitory compound (final concentration […]). After 15 min preincubation at room temperature, the reaction was started with the addition of 0.05 ml substrate (final concentration 5 uM). Incubation was carried out at 30 C. for 1 hr. The reaction was stopped with 1 ml 0.1M ammonium hydroxide.
HPLC measurement of product formation: The product (aminobenzoyl-Ala-Thr-His-Gln-Val-Tyr) was separated from substrate on a Pharmacia MonoQ anion exchange column. The injection volume was 0.2 ml. The mobile phases were: A (20 mM trisHCl, pH 9.0, 0.02% sodium Azide, 10% acetonitrile), B (20 mM tris HCl, pH 9.0, 0.02% sodium azide, 0.5M ammonium formate, 10% acetonitrile). The mobile phases were pumped at 1 ml/min, with a gradient from 0 to 30% B in 5 min, 100% B for 4 min to wash the column, and a re-equilibration for 4 min. The retention time of the product was 3.6 min. Detection with a Shimadzu model RF535 fluorescence monitor was at 330 nm (excitation) and 430 (emission).

HIV-1 (RF) in MT-2 cells = test: microbe, parasite or virus in culture; type: cell-based; conditions: HIV-1 infected MT-2 cells, class symbols
Summary of the method: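 Read-out: gag and pol viral RNA captured by 5′-biotinylated oligonucleotides on streptavidin-coated wells, detected with alkaline phosphatase-linked reporter oligonucleotides, calibrated against BH10 in vitro transcripts. Virus stocks (RF, MN, IIIB) come from H9 cultures; MT-2 host cells kept in RPMI 1640, 5% FCS.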

[2] = Human immunodeficiency virus 1, MT2, HIV RNA assay, read-out: IC90
[3] = HIV protease inhibition, class symbols, read-out: Ki

Row | Structure (SMILES) | pKi [1] | IC90 (HIV-1 (RF) in MT-2 cells; [2]) [µg/mL] | pKi [1, 3] | IC90 (HIV-1 (RF) in MT-2 cells; HIV RNA assay)
1 | NCc1cccc(CN2C(=O)N(Cc3cccc(CN)c3)C(Cc3ccccc3)C(O)C(O)C2Cc2ccccc2)c1 (centres unmarked) [Example 6ZK] | 6.00 to 8.00 | 10 to 100 (≈ 17.7 to 177 µM) |  | 
2 | CCCCN1C(=O)N(CC2CCCC2)C(Cc2ccccc2)C(O)C(O)C1Cc1ccccc1 (centres unmarked) [Example 6J] | > 8.00 | < 10 |  | 
3 | CCCN1C(=O)N(Cc2ccccc2)C(Cc2ccccc2)C(O)C(O)C1Cc1ccccc1 (centres unmarked) [Example 4G] | > 8.00 | < 10 |  | 
4 | O=C(O)c1ccc(CN2C(=O)N(Cc3ccc(C(=O)O)cc3)C(Cc3ccccc3)C(O)C(O)C2Cc2ccccc2)cc1 (centres unmarked) [Example 6B] |  |  | 6.00 to 8.00 | ++ (++=10 to 100 μg/mL)
5 | [2H]c1c([2H])c([2H])c(C([2H])([2H])N2C(=O)N(C([2H])([2H])c3c([2H])c([2H])c([2H])c([2H])c3[2H])C(Cc3ccccc3)C(O)C(O)C2Cc2ccccc2)c([2H])c1[2H] (centres unmarked) [Example 4H] | > 8.00 | < 10 |  | 
6 | O=C1N(CC2CCCC2)C(Cc2ccccc2)C(O)C(O)C(Cc2ccccc2)N1CC1CCCC1 (centres unmarked) [Example 6H] | > 8.00 | < 10 |  | 
7 | CC(C)N1C(=O)N(Cc2ccccn2)C(Cc2ccccc2)C(O)C(O)C1Cc1ccccc1 (centres unmarked) [Example 6L] | 6.00 to 8.00 | < 10 |  | 
8 | O=C1NC(Cc2ccccc2)C(O)C(O)C(Cc2ccccc2)N1Cc1ccccc1 (centres unmarked) [Example 6o] | > 8.00 | < 10 |  | 
9 | CCCN1C(=O)N(Cc2ccc3ccccc3c2)C(Cc2ccccc2)C(O)C(O)C1Cc1ccccc1 (centres unmarked) [Example 4T] |  |  | > 8.00 | +++ (+++=<10 μg/mL)
10 | Nc1cccc(CN2C(=O)N(Cc3cccc(N)c3)C(Cc3ccccc3)C(O)C(O)C2Cc2ccccc2)c1 (centres unmarked) [Example 6ZI] | > 8.00 | < 10 |  | 
11 | O=C1N(Cc2ccc(Cl)cc2)C(Cc2ccccc2)C(O)C(O)C(Cc2ccccc2)N1Cc1ccc(Cl)cc1 (centres unmarked) [Example 6U] | > 8.00 | < 10 |  | 
12 | COc1ccccc1CN1C(=O)N(Cc2ccccc2OC)C(Cc2ccccc2)C(O)C(O)C1Cc1ccccc1 (centres unmarked) [Example 6ZB] | < 6.00 | 10 to 100 (≈ 17.6 to 176 µM) |  | 
13 | O=CNc1cccc(CN2C(=O)N(Cc3cccc(NC=O)c3)C(Cc3ccccc3)C(O)C(O)C2Cc2ccccc2)c1 (centres unmarked) [Example 6ZM] | > 8.00 | < 10 |  | 
14 | O=C1N(Cc2ccccc2)C(Cc2ccccc2)C(O)C(O)C(Cc2ccccc2)N1Cc1ccncc1 (centres unmarked) [Example 4B] | > 8.00 | < 10 |  | 
15 | C=CCN1C(=O)N(CC2CC2)C(Cc2ccccc2)C(O)C(O)C1Cc1ccccc1 (centres unmarked) [Example 3W] |  |  | > 8.00 | +++ (+++=<10 μg/mL)
16 | O=C1N(Cc2ccccc2)C(Cc2ccccc2)C(O)C(O)C(Cc2ccccc2)N1CC1CCCC1 (centres unmarked) [Example 4E] |  |  | > 8.00 | +++ (+++=<10 μg/mL)
17 | O=C1N(Cc2ccc(O)c(O)c2)C(Cc2ccccc2)C(O)C(O)C(Cc2ccccc2)N1Cc1ccc(O)c(O)c1 (centres unmarked) [Example 6ZQ] | > 8.00 | < 10 |  | 
18 | O=C1N(Cc2ccccc2Cl)C(Cc2ccccc2)C(O)C(O)C(Cc2ccccc2)N1Cc1ccccc1Cl (centres unmarked) [Example 6ZD] | 6.00 to 8.00 | < 10 |  | 
19 | O=C1N(Cc2ccc(Br)cc2)C(Cc2ccccc2)C(O)C(O)C(Cc2ccccc2)N1Cc1ccc(Br)cc1 (centres unmarked) [Example 6ZG] | 6.00 to 8.00 | < 10 |  | 
20 | C=CCN1C(=O)N(CC2CCCC2)C(Cc2ccccc2)C(O)C(O)C1Cc1ccccc1 (centres unmarked) [Example 5B] |  |  | > 8.00 | +++ (+++=<10 μg/mL)
21 | O=C1N(CC2CCC2)C(Cc2ccccc2)C(O)C(O)C(Cc2ccccc2)N1CC1CCC1 (centres unmarked) [Example 6G] | > 8.00 | < 10 |  | 
22 | CN(C)CCN1C(=O)N(CCN(C)C)C(Cc2ccccc2)C(O)C(O)C1Cc1ccccc1 (centres unmarked) [Example 6N] |  |  | < 6.00 | + (+=>100 μg/mL)

Row | Structure (SMILES) | pKi [1] | IC90 (HIV-1 (RF) in MT-2 cells; [2]) [µg/mL] | pKi [1, 3] | IC90 (HIV-1 (RF) in MT-2 cells; HIV RNA assay)
23 | O=C1N(Cc2ccncc2)C(Cc2ccccc2)C(O)C(O)C(Cc2ccccc2)N1CC1CC1 (centres unmarked) [Example 4C] | > 8.00 | < 10 |  | 
24 | O=C1N(Cc2cccc(Cl)c2)C(Cc2ccccc2)C(O)C(O)C(Cc2ccccc2)N1CC1CC1 (centres unmarked) [Example 6ZH] |  |  | > 8.00 | +++ (+++=<10 μg/mL)
25 | O=C1N(Cc2cccc(O)c2)C(Cc2ccccc2)C(O)C(O)C(Cc2ccccc2)N1CC1CC1 (centres unmarked) [Example 6D] |  |  | > 8.00 | +++ (+++=<10 μg/mL)
26 | O=C1NC(Cc2ccccc2)C(O)C(O)C(Cc2ccccc2)N1Cc1cccc([N+](=O)[O-])c1 (centres unmarked) [Example 6ZL] | > 8.00 | < 10 |  | 
27 | O=C1N(Cc2ccc(O)cc2)C(Cc2ccccc2)C(O)C(O)C(Cc2ccccc2)N1CC1CC1 (centres unmarked) [Example 6E] |  |  | > 8.00 | +++ (+++=<10 μg/mL)
28 | CCCCN1C(=O)N(CC=C(C)C)C(Cc2ccccc2)C(O)C(O)C1Cc1ccccc1 (centres unmarked) [Example 6I] |  |  | > 8.00 | +++ (+++=<10 μg/mL)
29 | O=C1N(Cc2ccccc2F)C(Cc2ccccc2)C(O)C(O)C(Cc2ccccc2)N1Cc1ccccc1F (centres unmarked) [Example 6P] | 6.00 to 8.00 | < 10 |  | 
30 | C=CCN1C(=O)N(Cc2ccncc2)C(Cc2ccccc2)C(O)C(O)C1Cc1ccccc1 (centres unmarked) [Example 5E] | 6.00 to 8.00 | < 10 |  | 
31 | CC(C)N1C(=O)N(Cc2ccc(O)cc2)C(Cc2ccccc2)C(O)C(O)C1Cc1ccccc1 (centres unmarked) [Example 5Y] |  |  | > 8.00 | +++ (+++=<10 μg/mL)
32 | Cc1ccc(CN2C(=O)N(Cc3ccc(C)cc3)C(Cc3ccccc3)C(O)C(O)C2Cc2ccccc2)cc1 (centres unmarked) [Example 6T] | > 8.00 | < 10 |  | 
33 | CCCCN1C(=O)N(CC2CC2)C(Cc2ccccc2)C(O)C(O)C1Cc1ccccc1 (centres unmarked) [Example 3X] | > 8.00 | < 10 |  | 
34 | C=CCN1C(=O)N(Cc2ccc3ccccc3n2)C(Cc2ccccc2)C(O)C(O)C1Cc1ccccc1 (centres unmarked) [Example 5D] |  |  | > 8.00 | +++ (+++=<10 μg/mL)
35 | O=C1N(Cc2ccc(F)cc2)C(Cc2ccccc2)C(O)C(O)C(Cc2ccccc2)N1CC1CC1 (centres unmarked) [Example 6V] |  |  | > 8.00 | +++ (+++=<10 μg/mL)
36 | O=C1N(Cc2ccc(F)c(F)c2)C(Cc2ccccc2)C(O)C(O)C(Cc2ccccc2)N1Cc1ccc(F)c(F)c1 (centres unmarked) [Example 6S] | > 8.00 | < 10 |  | 
37 | Cc1cccc(CN2C(=O)N(Cc3cccc(C)c3)C(Cc3ccccc3)C(O)C(O)C2Cc2ccccc2)c1 (centres unmarked) [Example 6ZA] | > 8.00 | < 10 |  | 
38 | O=C1N(Cc2ccc3ccccc3c2)C(Cc2ccccc2)C(O)C(O)C(Cc2ccccc2)N1Cc1ccc2ccccc2c1 (centres unmarked) [Example 3U] | > 8.00 | < 10 |  | 
39 | CC(=O)Nc1cccc(CN2C(=O)N(Cc3cccc(NC(C)=O)c3)C(Cc3ccccc3)C(O)C(O)C2Cc2ccccc2)c1 (centres unmarked) [Example 6ZN] | > 8.00 | < 10 |  | 
40 | O=C1N(Cc2cccnc2)C(Cc2ccccc2)C(O)C(O)C(Cc2ccccc2)N1CC1CC1 (centres unmarked) [Example 5G] |  |  | > 8.00 | +++ (+++=<10 μg/mL)
41 | CN(C)CCN1C(=O)N(CCN(C)C)C(Cc2ccccc2)C(O)C(O)C1Cc1ccccc1 (centres unmarked) [Example 6R] | < 6.00 | > 100 |  | 
42 | O=C1N(CC2CCCC2)C(Cc2ccccc2)C(O)C(O)C(Cc2ccccc2)N1CC1CC1 (centres unmarked) [Example 4F] | > 8.00 | < 10 |  | 
43 | COc1ccc(CN2C(=O)N(Cc3ccc(OC)cc3)C(Cc3ccccc3)C(O)C(O)C2Cc2ccccc2)cc1 (centres unmarked) [Example 6M] |  |  | 6.00 to 8.00 | +++ (+++=<10 μg/mL)
